Test results: article PMC8949075, “Evaluation of Two Novel Hydantoin Derivatives Using Reconstructed Human Skin Model Episkin^TM: Perspectives for Application as Potential Sunscreen Agents” (Molecules, 2022)

Tests used:
[1] = Incubation in buffer (pH 7.4) without HLMs (spontaneous hydrolysis control); assay type: physicochemical; conditions: buffer pH = 7.4, no HLMs, 30 min, 37 °C
Method: Supernatant analysis was performed using UHPLC/MS (Waters Corporation, Milford, MA, USA). Two control samples were prepared with each incubation set. The first, a mixture of a test compound and potassium phosphate buffer, and without the addition of HLMs nor the NADPH-regenerating system, was used to exclude the possibility of hydrolysis facilitated by the buffer solution. The second, a mixture of a test compound, potassium phosphate buffer and HLMs, but without the NADPH-regenerating system solution, was designed to evaluate the production of metabolites in the presence of enzymes but the absence of NADPH [14, 82]. The assays were repeated two times. The in vitro half time (t1/2) for JH3 was established from the slope of the linear regression of ln percent parent compound remaining against incubation time. Intrinsic clearance (Clint) was obtained from the equation: Clint = (volume of incubation [µL] (i.e., 250 µL)/protein in the incubation [mg] (i.e., 0.2 mg)) × 0.693/t1/2 [83, 84, 85].

[2] = Episkin skin permeation test (finite dose, OECD 428); assay type: in vitro ADME, human; conditions: human; 24 h exposure, 10 mg/cm^2 finite dose, 2% formulation; read-out: recovery in the epidermis (of the applied dose)
Method: (§1) The MM was provided by the manufacturer.
(§2) The receptor fluid composition was based on the pilot experiments.
(§3) The formulations of the test compounds (JH3 and JH10) and commercial UV filters were applied onto the skin surface in the donor compartment in a net dose of 10 mg/cm^2 (finite dose application) using disposable flexible loops. To quantify the dose of the formulation applied on the top of the Episkin^TM model, the loops were weighed, filled with approximately 11 mg of formulation, and then reweighed. The difference in weight was used as the amount of formulation applied. Commercial UV filters such as BP3, 4MBC, and AVO were used as reference standards. The filters were obtained from Sigma-Aldrich, Darmstadt, Germany.
(§4) The plate with tissues was embedded with parafilm and incubated at specific time points at 32 °C. As the passive diffusion of chemicals (and therefore their skin absorption) is affected by temperature, the diffusion chamber and skin were maintained at a constant temperature close to normal skin temperature of 32 ± 1 °C [19, 23, 30, 32]. At fixed time points (0, 1, 2, 3, 4, 5, 6, and 24 h), aliquots of the receptor fluid (0.5 mL) were collected from the receptor compartment and immediately replaced with fresh fluid. After 24 h the entire receptor fluid was collected, and the skin surface was washed thoroughly with cotton buds impregnated in methanol (5 times). The tissues were removed from the inserts and both the donor and receptor compartments were washed separately with methanol. The samples were stored at −20 °C until chemical analysis.
(§5) All samples were spiked with 25 µL of pentoxifylline (PTX, Sigma-Aldrich, Darmstadt, Germany) (final concentration of 20 µM) used as an internal standard prior to extraction. The samples were analyzed using ultra high-pressure liquid chromatography coupled with mass spectrometry (UHPLC/MS; Waters Corporation, Milford, MA, USA). Quantification was based on peak area and calculated from standard calibration curves of the compound adjusted by the internal standard area. The assay was in agreement with the Organization for Economic Co-operation and Development (OECD) guideline 428 [19].

[3] = test system: Episkin^TM reconstructed human epidermis; test: as above; assay type: in vitro ADME; conditions: for absorbed amount detected in the RF (of the applied dose) / amount remaining on the surface of the Episkin: 24 h exposure, 10 mg/cm^2 finite dose
Method: as §1, §2, §3, §4, §5

[4] = test system: Episkin^TM reconstructed human epidermis; test: Episkin skin irritation test (MTT viability, Il-1α release; OECD 439); conditions: for Il-1α release: 26 mg/cm^2 topical, 15 min exposure, 42 h post-incubation; for skin irritation classification: 50% viability cut-off (OECD prediction model)
Description: (§6) The Episkin^TM model (aged 13 days, large/1.07 cm^2 surface area) was provided by Episkin (Lyon, France). The Episkin^TM kit consists of 12 reconstructed epidermis units made of type I collagen matrix, representing the dermis, surfaced with a film of type IV collagen, upon which is laid a stratified and differentiated epidermis derived from human keratinocytes [17]. Upon receipt of the tissues, the culture inserts were removed from the agarose-nutrient solution and transferred into 12-well plates containing 2 mL of the maintenance medium (MM) per well. The MM was provided by the manufacturer. Tissues were then incubated for 24 h at 37 °C in a humidified atmosphere of 5% CO2 before use in the permeation, irritation, or phototoxicity experiments.
(§7) Prior to the irritation experiments, the Episkin^TM inserts were washed with sterile PBS to remove traces of the MM and transferred into new 12-well plates containing 2 mL of fresh MM. […] Sodium dodecyl sulphate (SDS; Sigma-Aldrich, Darmstadt, Germany) (5% in water) and PBS were used as positive and negative controls, respectively. Both controls were applied topically (26 mg/cm^2). Samples were tested in two independent experiments using three tissues for each chemical, positive, or negative control.
(§8) Then, the tissues were placed in new 12-well plates containing 2 mL of the MM per well and incubated for an additional 42 h at 37 °C in a humidified atmosphere of 5% CO2 as post-treatment incubation time. At the end of this period, the culture media of each tissue were collected and stored at −20 °C for Il-1α measurement.
(§9) The cell viability was assessed by a subsequent incubation of the tissues for 3 h with freshly prepared 3-(4,5-dimethylthiazol-2-yl)-2,5-diphenyltetrazolium bromide (MTT; Sigma-Aldrich, Darmstadt, Germany) solution (0.3 mg/mL in assay medium (AM)) in a 12-well plate. Then, a biopsy of the epidermis was done using a puncher (Episkin, Lyon, France), and the precipitated formazan was extracted using 500 µL of acidified isopropanol (Chempur, Piekary Śląskie, Poland) (0.04 N HCl in isopropanol) for 48 h (4 °C). At the end of the extraction period, 200 µL of each sample were transferred to 96-well plates for absorbance measurements at 570 nm (A570) [70, 71, 72, 73]. […] Viability (percent of control) was determined by dividing A570 of experimental wells by A570 of control wells × 100%. The test substance was considered as an irritant when mean tissue viability was equal or less than 50% [16, 17].
(§10) Il-1α measurement was conducted by a classic enzyme-linked immunosorbent assay (ELISA) technique (Cayman Chemical, Ann Arbor, MI, USA). Firstly, 100 µL of the samples were added into a 96-well ready to use microtiter plate (precoated with a monoclonal antibody specific for Il-1α (Il-1α capture antibody). Secondly, 100 µL of an acetylcholinesterase:Fab’ Conjugate (AChE:Fab’) was added to each well. The plate was covered with plastic film and incubated overnight at 4 °C. At the end of the incubation period the contents of each well were removed and rinsed five times with wash buffer. Next, 200 µL of Ellman’s reagent (containing the substrate for AChE) was added to each well, the plate was covered with plastic film and developed in the dark using an orbital shaker. The absorbance of the wells was measured at 410 nm. Il-1α concentrations were then calculated using the standard curve.

[5] = Relative lipophilicity by reversed-phase thin-layer chromatography; assay type: physicochemical; conditions: RP-TLC, RP-18 plates, methanol/phosphate buffer pH 7.4, extrapolated to 0% methanol
Method: The experimental log P was determined by reversed-phase thin-layer chromatography (RP-TLC). TLC was carried out on plates precoated with silica gel RP-18 F254 (Merck, Darmstadt, Germany). The mobile phases used were the mixtures of methanol (commercially available material of reagent grade) and 100 mM potassium–phosphate buffer (pH = 7.4), with the methanol content ranging from 95 to 65% (v/v) in 5% increments. A total of 10 μL of test compound solutions in methanol (1 mg/mL) were spotted on the plates. The plates were developed in chromatographic chambers previously saturated with solvent for 1 h. After development (at room temperature in a normal chamber: 22 × 22 × 7 cm) and the drying of the plates, the spots were observed under a UV lamp (λ = 254 nm). The Rf values were mean values from two independent chromatographic runs. The experimental Rf was converted into the RM value according to the following equation [66]: RM = log (1/Rf − 1). The calculated values were extrapolated for a 0% methanol concentration (RM0) using the equation: RM = RM0 + bC, where C is the concentration (%, v/v) of methanol in the mobile phase and b is the regression term.

[6] = set-up: method as in PMID 31238526; conditions: 2% (w/w) macrogol formulations; cited from earlier work
in vitro = conditions: human, 26 mg/cm^2
Description: as §6, §7, §8, §9, §10

[7] = test system: Episkin^TM reconstructed human epidermis; test: Episkin phototoxicity test (UVA 50 J/cm^2; MTT viability, Il-1α release); assay type: cell-based; conditions: 0.5 and 1 mM; for phototoxic potential / viability of irradiated epidermis: UVA 50 J/cm^2; for tissue viability without UVA exposure: non-irradiated
Method: as §1
Compounds JH3 and JH10 (final concentrations of 0.5 and 1 mM) solubilized in ethanol (final concentration of 1% in water) were applied topically on the tissue surface. Chlorpromazine (CPZ, chlorpromazine hydrochloride, C17H19ClN2S·HCl, CAS number: 69-09-0, molecular weight: […], purity: meets USP testing specifications, Sigma-Aldrich, Darmstadt, Germany) (final concentration of 0.5 mM, based on literature data) was used as a positive control, whereas solvent alone served as a negative control.
Duplicate plates were prepared for UVA and dark (controls) exposure purposes. After the treatment period of 2 h, the excess test compound was removed from each well, and the tissues were exposed to UVA at a non-cytotoxic dose of 50 J/cm^2 ([…] at 250 W/m^2) with a solar light simulator equipped with a window glass filter and ID65 filter (Suntest CPS+, Atlas, Linsengericht, Germany). The emitted spectrum contained both UV and visible outputs with a UV cut-on of approx. 320 nm and corresponded to ID65 per ISO 10,977 [74]. The irradiance level between 320 and 400 nm was approximated by the following equation: W/m^2 (320–400 nm) = W/m^2 (300–800 nm) ÷ 11.5. In parallel, the non-irradiated treated tissues were placed in the dark under the same conditions. […] Next, cell viability was assessed using an MTT conversion test and the culture media aliquots were kept frozen (−20 °C) for Il-1α measurement (see 2.3.2. The Episkin^TM skin irritation test method section).

For `CCOC(=O)CN1C(=O)/C(=C/C=C/c2ccc(OC)cc2)N(CC(=O)OCC)C1=O` [JH3, diethyl 2,2′-((Z)-4-((E)-3-(4-methoxyphenyl)allylidene)-2,5-dioxoimidazolidine-1,3-diyl)diacetate], the “spontaneous hydrolysis in buffer” value [1] was “no signs of spontaneous hydrolysis”, the recovery at 24 h, 2 % in formulation [2] was 3% and the “absorbed amount detected in the RF (of the applied dose)” value ([3]; 2% formulation) was 1%. For the same molecule, the “amount remaining on the surface of the Episkin” value ([3]; 2% formulation) was 95%, the “detectable amount in RF, fold lower than that of JH10” value ([3]; after 24 h exposure) was “about 28 fold” and the “detection in the receptor fluid over time” value ([3]; sampling 0-6 and 24 h, 2% formulation, 10 mg/cm^2) was “undetectable in the RF in the first six hours”. The Il-1α release [4] was “no significant increase”, the skin irritation classification [4] was “non-irritants” and the “relative lipophilicity value (RM0)” value [5] was 3.22. For the same molecule, the “SPFin vitro (sun protection factor)” value [6] was 1.68 ± 0.04, the “UVA PF” value [6] was 6.83 ± 0.05 and the “UVA/UVB Ratio” value [6] was 4.50 ± 0.32. For the same molecule, the λc [6] was 391 nm, the viability at 15 min (in vitro) was no less than 50% and the phototoxic potential [7] was “absence of phototoxic potential”. The “viability of irradiated epidermis” value [7] was “no significant difference” and the “tissue viability without UVA exposure” value [7] was “no changes in tissue viability”.
In the case of `CCOC(=O)CN1C(=O)/C(=C/c2ccc(OC)cc2)N(CC(=O)OCC)C1=O` [JH10, diethyl 2,2′-((Z)-4-(4-methoxybenzylidene)-2,5-dioxoimidazolidine-1,3-diyl)diacetate], the “spontaneous hydrolysis in buffer” value [1] is reported as “no signs of spontaneous hydrolysis”, the recovery at 24 h, 2 % in formulation [2] is reported as 7% and the “absorbed amount detected in the RF (of the applied dose)” value ([3]; 2% formulation) is reported as 48%. For the same molecule, the “amount remaining on the surface of the Episkin” value ([3]; 2% formulation) was 45%, the “amount in the receptor fluid (RF)” value ([3]; after the first hour of exposure, 2% formulation, 10 mg/cm^2) was 1 µg/cm^2 and the Il-1α release [4] was “no significant increase”. For the same molecule, the skin irritation classification [4] was “non-irritants”, the “relative lipophilicity value (RM0)” value [5] was 2.46 and the “SPFin vitro (sun protection factor)” value [6] was 3.07 ± 0.04. For the same molecule, the “UVA PF” value [6] was 2.59 ± 0.23, the “UVA/UVB Ratio” value [6] was 0.84 ± 0.08 and the λc [6] was 366 nm. The viability at 15 min (in vitro) was no less than 50%, the phototoxic potential [7] was “absence of phototoxic potential” and the “viability of irradiated epidermis” value [7] was “no significant difference”. For the same molecule, the “tissue viability without UVA exposure” value [7] was “no changes in tissue viability”.
